Laboratory results published in patent US20240108725A1, “METHOD FOR TREATING CANCER AND SYSTEM FOR SAME” (OTSUKA MEDICAL DEVICES CO., LTD, priority 2020, published 2024).

Tested on: C6 cells
Assay: Rate of dead cells after 5-ALA PDT in erythrocyte solution, C6 cells, Example 3
Assay type: cell-based, rat
Procedure: C6 cells or human leukemia cell line TL-Oml cells were cultured in 2.5% FBS/F-12K medium (C6 cells) or 10% FBS/RPMI1640 (TL-Oml cells) supplemented with 5-ALA to a final concentration of 0.125 to 0.5 mM in a 5% CO2 incubator at 37° C. for 4 hours. After the culture, the cells were removed with a 0.25% trypsin-EDTA solution, and the collected cells were adjusted to 2×10^7 cells/mL with an erythrocyte solution (a solution in which erythrocytes and PBS were mixed at a ratio of 45:55). The cell suspension thus prepared was injected into a Tygon tube (inner diameter: 0.79 mm), wrapped around a light irradiator, and irradiated with light having a wavelength of 630 nm so that the irradiation energy density was 0.5 to 500 J/cm^2. After the irradiation, an ammonium chloride solution was added to the cell suspension to hemolyze the erythrocytes. Cells before the PDT treatment, after the PDT treatment, and after 24-hour culture were stained with the FITC Annexin V Apoptosis Detection Kit I and the rate of dead cells was analyzed with a flow cytometer.

[1] = 5-ALA 0.125 mM, 20 J/cm^2, 24 hours after irradiation
[2] = 5-ALA 0.125 mM, 20 J/cm^2, immediately after irradiation
[3] = 5-ALA 0.125 mM, 50 J/cm^2, 24 hours after irradiation
[4] = 5-ALA 0.125 mM, 50 J/cm^2, immediately after irradiation
[5] = 5-ALA 0.125 mM, 100 J/cm^2, 24 hours after irradiation
[6] = 5-ALA 0.125 mM, 100 J/cm^2, immediately after irradiation
[7] = 5-ALA 0.125 mM, 400 J/cm^2, 24 hours after irradiation
[8] = 5-ALA 0.125 mM, 400 J/cm^2, immediately after irradiation
[9] = 5-ALA 0.125 mM, 500 J/cm^2, 24 hours after irradiation
[10] = 5-ALA 0.125 mM, 500 J/cm^2, immediately after irradiation
[11] = 5-ALA 0.25 mM, 2.5 J/cm^2, 24 hours after irradiation
[12] = 5-ALA 0.25 mM, 2.5 J/cm^2, immediately after irradiation
[13] = 5-ALA 0.25 mM, 5 J/cm^2, 24 hours after irradiation
[14] = 5-ALA 0.25 mM, 5 J/cm^2, immediately after irradiation
[15] = 5-ALA 0.25 mM, 250 J/cm^2, 24 hours after irradiation
[16] = 5-ALA 0.25 mM, 250 J/cm^2, immediately after irradiation
[17] = 5-ALA 0.25 mM, 300 J/cm^2, 24 hours after irradiation
[18] = 5-ALA 0.25 mM, 300 J/cm^2, immediately after irradiation
[19] = 5-ALA 0.25 mM, 350 J/cm^2, 24 hours after irradiation
[20] = 5-ALA 0.25 mM, 350 J/cm^2, immediately after irradiation
[21] = 5-ALA 0.5 mM, 0.5 J/cm^2, 24 hours after irradiation
[22] = 5-ALA 0.5 mM, 0.5 J/cm^2, immediately after irradiation
[23] = 5-ALA 0.5 mM, 1 J/cm^2, 24 hours after irradiation
[24] = 5-ALA 0.5 mM, 1 J/cm^2, immediately after irradiation
[25] = 5-ALA 0.5 mM, 2.5 J/cm^2, 24 hours after irradiation
[26] = 5-ALA 0.5 mM, 2.5 J/cm^2, immediately after irradiation
[27] = 5-ALA 0.5 mM, 100 J/cm^2, 24 hours after irradiation
[28] = 5-ALA 0.5 mM, 100 J/cm^2, immediately after irradiation
[29] = 5-ALA 0.5 mM, 350 J/cm^2, 24 hours after irradiation
[30] = 5-ALA 0.5 mM, 350 J/cm^2, immediately after irradiation
[31] = 5-ALA 0.5 mM, 400 J/cm^2, 24 hours after irradiation
[32] = 5-ALA 0.5 mM, 400 J/cm^2, immediately after irradiation
[33] = 5-ALA 0.5 mM, 500 J/cm^2, 24 hours after irradiation
[34] = 5-ALA 0.5 mM, 500 J/cm^2, immediately after irradiation

NCC(=O)CCC(=O)O [5-ALA, 5-aminolevulinic acid]
14%: Annexin V−/PI− (%) [18]
0%: Annexin V+/PI− (%) [10] | Annexin V+/PI− (%) [16] | Annexin V+/PI− (%) [18] | Annexin V+/PI− (%) [20] | Annexin V+/PI− (%) [30] | Annexin V+/PI− (%) [32] | Annexin V+/PI− (%) [34]
59%: Annexin V+/PI+ (%) [15]
8%: Annexin V+/PI− (%) [13] | Annexin V+/PI− (%) [15] | Annexin V−/PI− (%) [27] | Annexin V−/PI− (%) [30]
88%: Annexin V−/PI− (%) [13]
2%: Annexin V+/PI+ (%) [1] | Annexin V+/PI+ (%) [2] | Annexin V+/PI+ (%) [11] | Annexin V+/PI+ (%) [12] | Annexin V−/PI− (%) [19] | Annexin V+/PI+ (%) [21] | Annexin V+/PI− (%) [22] | Annexin V+/PI+ (%) [23] | Annexin V+/PI− (%) [28] | Annexin V+/PI− (%) [31] | Annexin V+/PI− (%) [33] | Annexin V−/PI− (%) [34]
93%: Annexin V−/PI− (%) [8] | Annexin V−/PI− (%) [11]
97%: Annexin V−/PI− (%) [2] | Annexin V−/PI− (%) [12] | Annexin V+/PI+ (%) [34]
90%: Annexin V+/PI+ (%) [30]
23%: Annexin V−/PI− (%) [15]
91%: Annexin V+/PI+ (%) [20]
15%: Annexin V−/PI− (%) [28]
3%: Annexin V+/PI− (%) [1] | Annexin V+/PI+ (%) [3] | Annexin V+/PI− (%) [3] | Annexin V+/PI+ (%) [4] | Annexin V+/PI+ (%) [14] | Annexin V+/PI− (%) [21] | Annexin V+/PI+ (%) [22] | Annexin V+/PI− (%) [23] | Annexin V+/PI+ (%) [24] | Annexin V−/PI− (%) [29]
82%: Annexin V−/PI− (%) [10]
86%: Annexin V+/PI+ (%) [17] | Annexin V+/PI+ (%) [27]
1%: Annexin V+/PI− (%) [2] | Annexin V+/PI− (%) [4] | Annexin V+/PI− (%) [6] | Annexin V+/PI− (%) [8] | Annexin V+/PI− (%) [12] | Annexin V+/PI− (%) [14] | Annexin V+/PI− (%) [19] | Annexin V+/PI− (%) [24] | Annexin V+/PI− (%) [26] | Annexin V−/PI− (%) [31] | Annexin V−/PI− (%) [33]
98%: Annexin V+/PI+ (%) [33]
28%: Annexin V−/PI− (%) [16]
70%: Annexin V+/PI+ (%) [16]
92%: Annexin V-/PI− (%) [5] | Annexin V−/PI− (%) [25] | Annexin V+/PI+ (%) [29]
9%: Annexin V+/PI− (%) [9]
94%: Annexin V-/PI− (%) [3] | Annexin V−/PI− (%) [26] | Annexin V+/PI+ (%) [32]
95%: Annexin V-/PI− (%) [1] | Annexin V−/PI− (%) [4] | Annexin V−/PI− (%) [6] | Annexin V−/PI− (%) [21] | Annexin V−/PI− (%) [22] | Annexin V−/PI− (%) [23]
96%: Annexin V−/PI− (%) [14] | Annexin V+/PI+ (%) [19] | Annexin V−/PI− (%) [24] | Annexin V+/PI+ (%) [31]
6%: Annexin V+/PI+ (%) [8] | Annexin V−/PI− (%) [20] | Annexin V+/PI− (%) [27]
27%: Annexin V+/PI+ (%) [9]
5%: Annexin V+/PI− (%) [7] | Annexin V+/PI− (%) [11] | Annexin V+/PI+ (%) [13] | Annexin V−/PI− (%) [32]
81%: Annexin V+/PI+ (%) [28]
83%: Annexin V+/PI+ (%) [18]
10%: Annexin V+/PI+ (%) [7] | Annexin V−/PI− (%) [17]
17%: Annexin V+/PI+ (%) [10]
4%: Annexin V+/PI+ (%) [5] | Annexin V+/PI− (%) [5] | Annexin V+/PI+ (%) [6] | Annexin V+/PI− (%) [17] | Annexin V+/PI+ (%) [25] | Annexin V+/PI− (%) [25] | Annexin V+/PI+ (%) [26] | Annexin V+/PI− (%) [29]
